The target in this assay is T1, bovine serum albumin (BSA) (Bos taurus, UniProt P02769).
T1 construct: gene ALB; commercial fatty acid-free native BSA (Shanghai Shenhang Biotechnology), mature, 583 residues, untagged; PDB 4JK4 used only for docking
T1 sequence (P02769 25-607): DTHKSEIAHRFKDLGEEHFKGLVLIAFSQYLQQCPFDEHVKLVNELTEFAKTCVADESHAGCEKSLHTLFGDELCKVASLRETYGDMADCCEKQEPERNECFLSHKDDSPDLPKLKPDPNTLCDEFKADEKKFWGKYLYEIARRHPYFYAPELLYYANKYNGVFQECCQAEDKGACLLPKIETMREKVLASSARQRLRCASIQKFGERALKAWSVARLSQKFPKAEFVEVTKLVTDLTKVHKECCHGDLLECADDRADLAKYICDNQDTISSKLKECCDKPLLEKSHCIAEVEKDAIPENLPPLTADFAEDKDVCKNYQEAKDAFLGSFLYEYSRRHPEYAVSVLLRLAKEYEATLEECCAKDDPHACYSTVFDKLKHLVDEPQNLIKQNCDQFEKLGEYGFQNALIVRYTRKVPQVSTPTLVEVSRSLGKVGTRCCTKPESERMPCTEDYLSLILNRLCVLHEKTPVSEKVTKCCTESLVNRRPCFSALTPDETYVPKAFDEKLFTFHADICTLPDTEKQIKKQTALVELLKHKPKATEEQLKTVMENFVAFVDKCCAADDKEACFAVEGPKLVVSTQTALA
Description: intrinsic fluorescence quenching (ex […] nm). It counts as binding. The settings on record: 297 K, pH 7.4, 0.05 M Tris-HCl, 0.1 M NaCl, 5 µM BSA; double-log.
`CC(=O)O[C@@H]1[C@@H](OC(C)=O)[C@@H](O)[C@H](Oc2c(-c3ccc(O)cc3)oc3cc(O[C@@H]4O[C@@H](C)[C@H](O)[C@@H](O)[C@H]4O)cc(O)c3c2=O)O[C@H]1C` [compound 2, crassirhizomoside B]: the “Kb (×10^5 L.mol^-1)” value was 0.57 × 10^5 L·mol^−1.
With `CC(=O)O[C@@H]1[C@@H](O)[C@@H](O)[C@H](Oc2cc(O)c3c(=O)c(O[C@@H]4O[C@@H](C)[C@H](OC(C)=O)[C@@H](OC(C)=O)[C@H]4O)c(-c4ccc(O)cc4)oc3c2)O[C@H]1C` [compound 1, kaempferol3-O-α-L-(3,4-O-di-acetyl) rhamopyranoside-7-O-α-L-(4-O-acetyl) rhamnopyranoside], the “Kb (×10^5 L.mol^-1)” value was 0.41 × 10^5 L·mol^−1.
Turning to `CC(=O)O[C@H]1[C@H](Oc2c(-c3ccc(O)cc3)oc3cc(O[C@@H]4O[C@@H](C)[C@H](O)[C@@H](O)[C@H]4O)cc(O)c3c2=O)O[C@@H](C)[C@H](O)[C@H]1O` [compound 5, kaempferol 3-O-α-L-(2-O-acetyl) rhamopyranoside-7-O-α-L-rhamnopyranoside], the “Kb (×10^5 L.mol^-1)” value was 0.96 × 10^5 L·mol^−1.
Then `CC(=O)O[C@@H]1[C@@H](O)[C@H](C)O[C@@H](Oc2c(-c3ccc(O)cc3)oc3cc(O[C@@H]4O[C@@H](C)[C@H](O)[C@@H](O)[C@H]4O)cc(O)c3c2=O)[C@@H]1O` [compound 4, kaempferol 3-O-α-L-(3-O-acetyl) rhamopyranoside-7-O-α-L-rhamnopyranoside], with 1.06 × 10^5 L·mol^−1.

The values are drawn from paper PMC6152408, “Interaction of Flavonoids from Woodwardia unigemmata with Bovine Serum Albumin (BSA): Application of Spectroscopic Techniques and Molecular Modeling Methods” (Molecules : A Journal of Synthetic Chemistry and Natural …, 2017).
